Data as given in patent publication US6677315B2, “Nucleosides for imaging and treatment applications” (The United States of America as represented by the …, priority 1997, dated 2004).

Assays:
K-562 cells [1] = assay: Growth inhibition, 72-hr continuous exposure; format: cell-based, human
Description: (§1) The human-derived cell lines CEM, MOLT-4, RAJI, U-937, K-562 and the murine-derived L1210 were purchased from the American Type Culture Collection, Rockville, Md. Cells were grown and maintained as a suspension culture in RPMI 1640 medium containing L-glutamine and 10%(v/v) heat-inactivated fetal calf serum (BRL-GIBCO, Rockville, Md.). Penicillin-streptomycin solution (Sigma Chemical Co., St. Louis, Mo.) was added to achieve a final concentration of 100 units/mL. and 100 μg/mL respectively.
(§2) All cell lines, except for L1210, were suspended in fresh media at 30,000 cells/mL. L1210 cells were suspended at 10,000 cells/mL. Cells, 2 mL, were added to each of the wells of 24-well plates and incubated with either 0 to 1000 μM of FAU or 0 to 300 μM of FMAU. Incubation was conducted at 37° C. in a humidified 5% CO2 atmosphere for 72 hours. Inhibition of cellular growth was assessed by cell counting (Elzone 180, Particle Data, Inc., Elmhurst, IL). Under these conditions, the control doubling times for CEM, MOLT-4, RAJI, U-937, and K-562 cells were 21-22 hours, while the doubling times for L1210 was 8-10 hours.

U-937 cells [2] = assay: Growth inhibition, 72-hr continuous exposure; format: cell-based, human; conditions: U-937, 100 μM, 72 hours continuous incubation
Description: as §1, §2

MOLT-4 cells [3] = assay: Growth inhibition, 72-hr continuous exposure; format: cell-based, human; conditions: MOLT-4, 100 μM, 72 hours continuous incubation
Description: as §1, §2

CEM cells [4] = assay: Growth inhibition, 72-hr continuous exposure; format: cell-based, human
Description: as §1, §2

RAJI cells [5] = assay: Growth inhibition, 72-hr continuous exposure; format: cell-based, human; conditions: 72 hours continuous incubation
Description: as §1, §2

K-562 cells [6] = assay: Intracellular nucleotide formation and incorporation into DNA; format: cell-based, human; conditions: K-562, 10 μM FAU for 24 hours
Description: as §1
(§3) All cell lines, except for L1210, were resuspended in fresh media at 300,000 cells/mL with appropriate amount of radioactive drug. L1210 cells were resuspended at 150,000 cells/mL. After 24 hours at 37° C. in a humidified 5% CO2 atmosphere, cells were harvested for nucleotide measurement and DNA incorporation. Soluble nucleotides were determined for each cell line following exposure to 10 μM FAU. Incorporation of FAU into DNA (as FMAU) was determined over a range of FAU concentrations from 1 μM to 1 mM. As described previously by Klecker, R W, Katki A G, Collins J M. in “Toxicity, Metabolism, DNA Incorporation with Lack of Repair, and Lactate Production for 1-(2′-Fluoro-2′-deoxy-β-D-arabinofuranosyl)-5-iodouracil in U-937 and MOLT-4-cells”, Mol. Pharmacol. 1994; 46;1204-1209; and Speth P A J, Kinsella T J, Chang A E, Klecker R W, Belanger K. Collins J M. in “Incorporation of Iododeoxyuridine into DNA of Hepatic Metastases Versus Normal Human Liver.” Clin. Pharmacol. Ther. 1988; 44:369-75, DNase I and phosphodiesterase I were used to release the bases from DNA. These bases and soluble nucleotides were determined by previously reported HPLC-based methods as noted by Klecker et al. in the previously mentioned reference, “Toxicity, Metabolism, DNA Incorporation with Lack of Repair, and Lactate Production for 1-(2′-fluoro-2′-deoxy-β-D-arabinofuranosyl)-5-iodouracil in U-937 and MOLT-4-cells.” Drug incorporation into cellular DNA was determined using the equation: percent incorporation=100×([drug]/([dThd]+[drug]).

U-937 cells [7] = assay: as above; format: cell-based, human; conditions: U-937, 10 μM FAU for 24 hours
Description: as §1, §3

MOLT-4 cells [8] = assay: as above; format: cell-based, human; conditions: MOLT-4, 10 μM FAU for 24 hours
Description: as §1, §3

CEM cells [9] = assay: as above; format: cell-based, human; conditions: 10 μM FAU for 24 hours
Description: as §1, §3

RAJI cells [10] = assay: as above; format: cell-based, human; conditions: 10 μM FAU for 24 hours
Description: as §1, §3

[11] = FAU plasma concentrations in mice during oral dosing (HPLC); format: in vivo; conditions: oral gavage 5 g/kg once per day for 14 days
Description: (§4) The toxicity of the compounds of the present invention has been evaluated in an animal model system. FAU was administered by oral gavage to mice at a dose of 5 g/kg once per day for 14 consecutive days. After an additional 14 days of observation following this dosing period, the animals were sacrificed. […] Blood samples were obtained at various times during this treatment, to confirm that the drug was adequately absorbed. HPLC analysis of these samples indicated FAU concentrations in plasma reached maximum levels of 750 micromolar and minimum levels of 50 micromolar.

[12] = test system: CEM, MOLT-4, RAJI, U-937, K-562 and L1210 cells; assay: Growth inhibition, 72-hr continuous exposure, all cell lines; format: cell-based, human; murine
Description: as §1, §2

L1210 cells [13] = assay: Growth inhibition, 72-hr continuous exposure; format: cell-based, murine; conditions: L1210, 100 μM, 72 hours continuous incubation
Description: as §1, §2

[14] = test system: CEM, MOLT-4, RAJI, U-937, K-562 and L1210 cells; assay: Intracellular nucleotide formation, all cell lines; format: cell-based, human; murine; conditions: incubation with 10 μM FAU for 24 hours
Description: as §1
(§5) All cell lines, except for L1210, were resuspended in fresh media at 300,000 cells/mL with appropriate amount of radioactive drug. L1210 cells were resuspended at 150,000 cells/mL. […] Soluble nucleotides were determined for each cell line following exposure to 10 μM FAU. Incorporation of FAU into DNA (as FMAU) was determined over a range of FAU concentrations from 1 μM to 1 mM. […] These bases and soluble nucleotides were determined by previously reported HPLC-based methods as noted by Klecker et al. in the previously mentioned reference, “Toxicity, Metabolism, DNA Incorporation with Lack of Repair, and Lactate Production for 1-(2′-fluoro-2′-deoxy-β-D-arabinofuranosyl)-5-iodouracil in U-937 and MOLT-4-cells.” Drug incorporation into cellular DNA was determined using the equation: percent incorporation=100×([drug]/([dThd]+[drug]).

mice = assay: Toxicity in mice after oral gavage for 14 days; format: in vivo; conditions: oral gavage 5 g/kg once per day for 14 days, plus 14 days observation
Description: as §4

L1210 cells [15] = assay: Intracellular nucleotide formation and incorporation into DNA; format: cell-based, murine; conditions: L1210, 10 μM FAU for 24 hours; incorporated as FMAU
Description: as §1, §5

[16] = test system: thymidylate synthase (TS) in cell extracts of the other cell lines; assay: Methylation of FAUMP by thymidylate synthase in cell extracts (tritium release), other cell lines; format: biochemical, human; murine; conditions: 20 μM substrate, tritiated water release
Description: (§6) When TS adds a methyl group to the 5-position of dUMP to generate dTMP, the proton at that location is released. When [5-^3H]dUMP is the substrate, TS activity in cell extracts can be assessed by monitoring the accumulation rate of tritiated water. Here, [5-^3H]FAUMP was used as the substrate for methylation by TS, and the generation of FMAUMP was determined from the release of tritiated water. Cell extracts were prepared from each cell line by sonication of intact cells. (See: Armstrong R D, Diasio R B. “Improved Measurement of Thymidylate Synthetase Activity by a Modified Tritium-Release Assay” J. Biochem. Biophys. Methods. 1982; 6: 141-7 and Speth P A J, Kinsella T J, Chang A E, Klecker R W, Belanger K. Collins J M. “Incorporation of Iododeoxyuridine into DNA of Hepatic Metastases Versus Normal Human Liver” Clin. Pharmacol. Ther. 1988; 44:369-75.) The methyl donor was provided by 5,10-methylene tetrahydrofolate, which was generated in situ by the addition of formaldehyde to tetrahydrofolate. At various times after the addition of substrate (20 μM of either [5-^3H]dUMP or [5-^3H]FAUMP), the reaction was stopped by addition of HCl. Unreacted substrate was separated from tritiated water by adsorption onto activated charcoal. After centrifugation, an aliquot of the supernatant was counted for tritiated water.

[17] = target: T1, thymidylate synthase (TS) in U-937 cell extracts (Homo sapiens, UniProt P04818); assay: Methylation of FAUMP by thymidylate synthase in cell extracts (tritium release); format: biochemical; conditions: 20 μM substrate, tritiated water release
T1 construct: Cell extracts were prepared from each cell line by sonication of intact cells; endogenous in cells; host or cells: U-937 cells (sonicated extract)
T1 sequence (P04818 whole entry): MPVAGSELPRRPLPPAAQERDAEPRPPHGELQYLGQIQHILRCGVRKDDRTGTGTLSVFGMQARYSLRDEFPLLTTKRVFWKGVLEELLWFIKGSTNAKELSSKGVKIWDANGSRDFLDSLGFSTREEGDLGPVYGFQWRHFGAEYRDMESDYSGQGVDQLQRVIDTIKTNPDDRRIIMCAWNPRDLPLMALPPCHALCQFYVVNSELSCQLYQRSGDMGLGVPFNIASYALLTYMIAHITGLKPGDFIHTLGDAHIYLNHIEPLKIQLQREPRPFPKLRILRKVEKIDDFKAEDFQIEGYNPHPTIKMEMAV
Description: as §6

[18] = target: T2, thymidylate synthase in RAJI cells (Homo sapiens, UniProt P04818); assay: Dehalogenation of IdUrd as probe for thymidylate synthase activity in situ; format: cell-based; conditions: 3 μM [3H]-IdUrd for 24 hours, fraction in DNA
T2 construct: endogenous in cells; host or cells: RAJI cells
T2 sequence (P04818 whole entry): as above
Description: (§7) The relative activity of thymidylate synthase was determined after incubation of cells with 3 μM [3H]-IdUrd for 24 hours. DNA was harvested, digested, and chromatographed as described above. Some IdUrd was incorporated into DNA with the iodine remaining intact on the pyrimidine ring. After conversion to IdUMP, part of the IdUrd was dehalogenated by TS to dUMP, which then was converted by TS into dTMP and subsequently incorporated into DNA, and recovered in the DNA digest as [^3H-dThd]. Relative TS activity in situ was defined as the fraction of IdUrd-derived material in DNA which was dehalogenated, i.e., ([^3H]-dThd)/([^3H]-dThd+[^3H]-IdUrd). These methods could also be used with non-radioactive IdUrd, if a stable isotopic label is used, e.g., ^13C, ^15N or ^2H. A mass spectrometric detector would be substituted for the radioactivity detector in the HPLC analysis. Unlabeled IdUrd can't be used since its dehalogenation produced unlabeled dThd, which would be indistinguishable from the endogenous pool of dThd in DNA.

[19] = target: T3, thymidylate synthase in MOLT-4 cells (Homo sapiens, UniProt P04818); assay: as above; format: cell-based; conditions: MOLT-4, 3 μM [3H]-IdUrd for 24 hours, fraction in DNA
T3 construct: endogenous in cells; host or cells: MOLT-4 cells
T3 sequence (P04818 whole entry): as above
Description: as §7

[20] = target: T4, thymidylate synthase in CEM cells (Homo sapiens, UniProt P04818); assay: as above; format: cell-based; conditions: 3 μM [3H]-IdUrd for 24 hours, fraction in DNA
T4 construct: endogenous in cells; host or cells: CEM cells
T4 sequence (P04818 whole entry): as above
Description: as §7

[21] = target: T5, thymidylate synthase in U-937 cells (Homo sapiens, UniProt P04818); assay: as above; format: cell-based; conditions: U-937, 3 μM [3H]-IdUrd for 24 hours, fraction in DNA
T5 construct: endogenous in cells; host or cells: U-937 cells
T5 sequence (P04818 whole entry): as above
Description: as §7

[22] = target: T6, thymidylate synthase in L1210 cells (Mus musculus, UniProt P07607); assay: as above; format: cell-based, murine; conditions: L1210, 3 μM [3H]-IdUrd for 24 hours, fraction in DNA
T6 construct: endogenous in cells; host or cells: L1210 cells
T6 sequence (P07607 whole entry): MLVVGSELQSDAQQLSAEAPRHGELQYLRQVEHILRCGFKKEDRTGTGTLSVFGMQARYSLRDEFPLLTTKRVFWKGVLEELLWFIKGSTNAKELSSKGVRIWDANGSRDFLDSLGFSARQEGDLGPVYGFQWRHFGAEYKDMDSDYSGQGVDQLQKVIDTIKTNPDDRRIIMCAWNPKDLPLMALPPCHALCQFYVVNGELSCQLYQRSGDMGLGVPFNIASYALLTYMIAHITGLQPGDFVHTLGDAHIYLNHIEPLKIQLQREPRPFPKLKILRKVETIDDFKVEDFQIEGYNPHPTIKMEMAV
Description: as §7

## O=c1ccn([C@@H]2O[C@H](CO)[C@@H](O)[C@@H]2F)c(=O)[nH]1 [FAU, 1-(2′Fluoro-2′deoxy-β-D-arabinofuranosyl)-uracil]
K-562 cells [1]; K-562, 100 μM, 72 hours continuous incubation
  growth inhibition: somewhat less inhibited
U-937 cells [2]
  growth inhibition: more than 50%
MOLT-4 cells [3]
  growth inhibition: somewhat less inhibited
CEM cells [4]; 100 μM, 72 hours continuous incubation
  growth inhibition: more than 50%
RAJI cells [5]; 100 μM
  growth inhibition: completely uninhibited
K-562 cells [6]
  FAUMP formed intracellularly: 11.1 ± 0.9 nmol/10^6 cells
K-562 cells [6]; incorporated as FMAU
  DNA % incorp: 0.22 ± 0.002%
U-937 cells [7]
  FAUMP formed intracellularly: 2.70 ± 0.69 nmol/10^6 cells
  FMAUTP formed intracellularly: 1.99 ± 0.08 nmol/10^6 cells
U-937 cells [7]; incorporated as FMAU
  DNA % incorp: 0.50 ± 0.02%
MOLT-4 cells [8]
  FMAUTP formed intracellularly: 1.92 ± 0.55 nmol/10^6 cells
MOLT-4 cells [8]; incorporated as FMAU
  DNA % incorp: 0.19 ± 0.01%
CEM cells [9]
  FAUMP formed intracellularly: 0.96 ± 0.24 nmol/10^6 cells
  FMAUTP formed intracellularly: 2.30 ± 0.28 nmol/10^6 cells
CEM cells [9]; incorporated as FMAU
  DNA % incorp: 0.81 ± 0.10%
RAJI cells [10]
  FAUMP formed intracellularly: 0.95 ± 0.17 nmol/10^6 cells
RAJI cells [10]; incorporated as FMAU
  DNA % incorp: 0.09 ± 0.002%
[11]
  FAU concentration in plasma, maximum level: 750 µM
  FAU concentration in plasma, minimum level: 50 µM
[12]
  IC50 values relative to FMAU (fold higher): 10 fold
L1210 cells [13]
  growth inhibition: completely uninhibited
[14]
  amounts of FMAUMP or FMAUDP found intracellularly: trace amounts
mice
  histopathologic examination of murine tissues (toxicity): no toxicity attributable to the drug treatment
L1210 cells [15]
  DNA % incorp: 0.08 ± 0.005%

## O=c1ccn([C@@H]2O[C@H](COP(=O)(O)O)[C@@H](O)[C@@H]2F)c(=O)[nH]1 [FAUMP, FAU monophosphate]
[16]
  rate of conversion to FMAUMP as % of the rate of dTMP formation from dUMP: 0.97-1.5%
[17]
  rate of conversion to FMAUMP as % of the rate of dTMP formation from dUMP: about 1%

## Cc1cn([C@H]2O[C@H](CO)[C@@H](O)[C@@H]2F)c(=O)[nH]c1=O [FMAU, 1-(2-deoxy-2-fluoro-alpha-D-arabinofuranosyl)thymine, reference compound]
K-562 cells [1]; Homo sapiens, K562, K-562, 100 μM, 72 hours continuous incubation
  inhibition at 100 µM: > 80%
K-562 cells [1]; K-562, 0.3 μM (lowest concentration used), 72 hours
  effect on cell growth: substantial effect
U-937 cells [2]; Homo sapiens
  inhibition at 100 µM: > 80%
MOLT-4 cells [3]; Homo sapiens
  inhibition at 100 µM: > 80%
CEM cells [4]; 0.3 μM (lowest concentration used), 72 hours
  effect on cell growth: substantial effect
CEM cells [4]; Homo sapiens, CCRF-CEM, 100 μM, 72 hours continuous incubation
  inhibition at 100 µM: > 80%
RAJI cells [5]; Homo sapiens
  inhibition at 100 µM: > 80%
L1210 cells [13]; Mus musculus
  inhibition at 100 µM: > 80%

## O=c1[nH]c(=O)n([C@H]2C[C@H](O)[C@@H](CO)O2)cc1I [IdUrd, Iododeoxyuridine]
[18]
  relative dehalogenation of IdUrd: ≤ 15%
[19]
  relative dehalogenation of IdUrd: ≥ 50%
[20]
  relative dehalogenation of IdUrd: ≥ 50%
[21]
  relative dehalogenation of IdUrd: ≥ 50%
[22]
  relative dehalogenation of IdUrd: ≤ 15%
